Data from patent publication US20230331649A1, “INHIBITORS OF PROTEIN FUCOSYLATION AND USES THEREOF” (SIMON FRASER UNIVERSITY, priority 2020, published 2023).

Key:
[1] = test system: Expi-CHO cells; assay: Glycan analysis of HER2 antibody from compound-treated Expi-CHO cells (PNGaseF release, CE-LIF); format: cell-based, Chinese hamster; conditions: 0.1 mM compound added a day after transfection with HER2 antibody, harvested after 8 days, released glycans by CE-LIF; for Glycan A2 (alt name G0) (%): non-fucosylated glycan
Procedure: Expi-CHO cells were treated with compounds 16, 7, 9, 13, 6, 8, 14 and 15 at 0.1 mM (final conc.) a day after transfection with HER2 antibody. The transfected cells were harvested after 8 days and purified HER2 antibodies were deglycosylated using PNGaseF and the released glycans were purified and analyzed by capillary electrophoresis-laser-induced fluorescence (CE-LIF).

[2] = test system: CHO K1 cells; assay: Cell-based fucosylation assay, fluorescein-AAL lectin staining of CHO K1 cells; set-up: species or system Chinese hamster; conditions: Cricetulus griseus, 120 h, five days with inhibitor, 3.2 nM-100 μM, AAL lectin fluorescence normalized to DMSO vehicle
Procedure: CHO K1 cells were grown in a T175 flask, in F12 medium supplemented with 10% […], at 37° C., 5% CO2. 350 cells were seeded in every well of a 384-well plate (Corning 4680, 45 μL final) and incubated at 37° C. overnight. Inhibitors were stored as 20 mM stock solution in DMSO. Inhibitors were diluted to the desired concentration in CHO cells culture medium and were dispensed into the wells of the plate (50 μL final well volume). An equivalent amount of DMSO (vehicle) was dispensed into control wells. Cells were incubated in the presence of inhibitors for five days. Following treatment, the culture medium was removed and cells were washed four times with 60 μL of PBS-T using a combination washer/dispenser (EL406, Biotek). 50 μL of 4% PFA in PBS-T was then dispensed into the plate and cells were incubated for 15 min at room temperature before being washed four times with 60 μL of PBS-T. Cells were subsequently incubated for 45 minutes at room temperature with 5% Bovine Serum Albumin (BSA) in PBS-T to prevent non-specific lectin binding. The BSA solution was then replaced by 50 μL of a solution of 5 μg/mL of Fluorescein-conjugated Aleuria Aurentia Lectin (AAL) (Vector Laboratories) and cells were kept at room temperature in the dark for 1 h. Negative controls were co-incubated with AAL and 100 mM fucose as a lectin antagonist. Cells were subsequently washed four times with 60 μL PBS-T. Then, 50 μL of 1 μg/mL Hoechst solution in PBS was dispensed into each well and cells were directly imaged using an ImageXpress MicroXLS high content microscope (Molecular Devices). Four sites per wells were imaged using DAPI and FITC channels (50 ms and 300 ms exposure respectively). Images were processed using MetaXpress software. Briefly, for each site, the integrated average fluorescence was quantified and normalized for the corresponding number of cells determined with nuclear staining. Results from each site were combined to provide a single value for each well. At least four independent wells were imaged for each condition providing four biological replicates. IC50 curves were plotted using GraphPad Prism. Results were normalized on the average value for vehicle wells (DMSO treated).
We assessed the potency of carbafucose and selected analogs through dose-response experiments over a 3.2 nM-100 μM range of concentrations in the cell-based assay. The cell-based fucosylation antagonist 2-deoxy-2-fluoro-L-fucose (2FFuc) was used as a control (FIGS. 1A-D).

Row | SMILES | Glycan A2BG2 (alt name G2B) (%) [1] | Glycan FA2(3)G1 (alt name G1′F) (%) [1] | Glycan FA2(6)G1 (alt name G1F) (%) [1] | Glycan FA2(6)G1S1 (alt name G1FS1) (%) [1] | Glycan FA2 (alt name G0F) (%) [1] | Glycan FA2G2S1 (alt name G2FS1) (%) [1] | Glycan FA2G2S2 (alt name G2FS2) (%) [1] | Glycan A2 (alt name G0) (%) [1] | IC50 [2]
1 | CC1=C[C@H](O)[C@@H](F)[C@H](O)[C@@H]1O [Compound 6] | 0.8% | 0.6% | 4.1% | 0.8% | 77.7% | 15.9% | 0.0% | 0.0% | –
2 | CC1C[C@H](O)[C@@H](F)[C@H](O)[C@@H]1O (stereo partly shown) [Compound 8] | 0.0% | 0.0% | 3.9% | 0.0% | 79.3% | 16.8% | 0.0% | 0.0% | –
3 | C[C@@H]1OC(O)[C@@H](F)[C@H](O)[C@@H]1O (stereo partly drawn) [2FFuc, 2-deoxy-2-fluoro-L-fucose, reference compound] | – | – | – | – | – | – | – | – | 137 ± 79 µM
4 | CC(=O)O[C@H]1[C@H](F)[C@@H](OC(C)=O)CC(C)[C@H]1OC(C)=O (stereo partly shown) [Compound 9] | 0.8% | 0.0% | 3.9% | 0.0% | 78.9% | 16.4% | 0.0% | 0.0% | –
5 | CC1=C[C@H](O)[C@@H](O)[C@H](O)[C@@H]1O [Compound 13] | 0.8% | 0.0% | 3.9% | 0.9% | 77.3% | 17.0% | 0.0% | 0.0% | –
6 | CC(=O)O[C@H]1[C@H](F)[C@@H](OC(C)=O)C=C(C)[C@H]1OC(C)=O [Compound 7] | 0.0% | 0.0% | 3.9% | 0.0% | 79.5% | 16.6% | 0.0% | 0.0% | –
7 | C[C@@H]1C[C@H](OP(=O)(O)O)[C@@H](O)[C@H](O)[C@@H]1O [2-3] | – | – | – | – | – | – | – | – | 39.5 ± 30.3 µM
8 | C[C@@H]1C[C@H](O)[C@@H](O)[C@H](O)[C@@H]1O [carbafucose] | – | – | – | – | – | – | – | – | 16.1 ± 7.7 µM
9 | CC1C[C@H](O)[C@@H](O)[C@H](O)[C@@H]1O (stereo partly shown) [Compound 15] | 0.0% | 0.0% | 0.0% | 17.2% | 8.8% | 0.0% | 3.3% | 70.6% | –
10 | C=C[C@@H]1C[C@H](O)[C@@H](O)[C@H](O)[C@@H]1O [1-42] | – | – | – | – | – | – | – | – | 137 ± 79 µM
